Assay results from patent US20230181463A1, “OLEOGEL AND OLEOPASTE COMPOSITIONS AND USES THEREOF” (Massachusetts Institute of Technology, priority 2020, published 2023).
Values belong to the compound of their own block, whether it stands above or below them.

Assays:
[1] = Description: Solubility of three anti-infectives, azithromycin, praziquantel and lumefantrine, were measured in 108 formulations prepared by mixing various oils and solubilizers (9 oils×11 solubilizers, and 9 oils without solubilizer). Given the focus in rapid clinical translation, the weight fraction of the solubilizer was limited to the maximum level they were used in FDA-approved products.
Approximately two grams of oil-solubilizer mixtures in a 20 mL glass vial. Drug was added in excess to each formulation and the mixture was stirred overnight at room temperature. One milliliter of the mixture was removed, placed in a microcentrifuge tube, and centrifuged at 6000 rpm for 15 min to remove insoluble drug particles. A fraction of the supernant was removed and drug was extracted using methanol or acetonitrile. Drug concentrations in the extracts were measured using HPLC.
An Agilent 1260 Infinity II HPLC system equipped with a quaternary pump, autosampler, thermostat, control module, and diode array detector. Data processing and analysis was performed using OpenLab CDS ChemStation®. Praziquantel chromatographic separations were carried out on an Agilent ZORBAX Eclipse Plus C-18 analytical column (4.6>150 mm) with 5 μm particles, maintained at 40° C. Gradient separation at a flow rate of 1 mL/min was achieved using water and acetonitrile, which corresponds to A and B, respectively. The run time was 5 minutes with a 3-minute post-run and a gradient profile of: 0 min A: 70% and B: 30%, 2.5 min A: 30% and B: 70%. The injection volume was 5 μL. The diode array detector was set using an ultraviolet (UV) detection wavelength of 217 nm with no reference at an acquisition rate of 40 hertz.
Azithromycin chromatographic separations were carried out on an Agilent 4.6×150 mm ZORBAX Eclipse Plus C-18 analytical column with 5 μm particles, maintained at 40° C. Isocratic separation at a flow rate of 1 mL/min was achieved using 10% 10 mM ammonium phosphate dibasic in water and 90% methanol. The run time was 6 minutes. The injection volume was 10 μL. The diode array detector was set using an ultraviolet (UV) detection wavelength of 210 nm with no reference at an acquisition rate of 5 hertz.
Lumefantrine chromatographic separations were carried out on an Agilent Poroshell 120 PFP column (4.6×100 mm) with 2.7 μm particles, maintained at 40° C. Gradient separation at a flow rate of 1 mL/min was achieved using 0.1% formic acid in water and methanol, which corresponds to A and B, respectively. The run time was 7 minutes with a 3-minute post-run and a gradient profile of: 0 min A: 30% and B: 70%, 3 min A: 5% and B: 95%. The injection volume was 10 μL. The diode array detector was set using an ultraviolet detection wavelength of 303 nm with no reference wavelength at an acquisition rate of 40 hertz.

[2] = cited from earlier work
[3] = Stability of AZT during synthesis of oleogel (heating in cottonseed oil at 90° C.); assay type: physicochemical; conditions: AZT 1 mg/g in cottonseed oil; 0, 5 and 10 mins; one-way ANOVA, α=0.05
Description: Twenty-five milligrams of AZT were added to cottonseed oil in a glass vial at concentration of 1 mg/g. After 60 minutes of sonication, all drug powder was dissolved. The AZT solution was divided into three parts (8 ml each). One part was maintained at room temperature, while the other two were placed on a hot plate at 90° C. for 5 minutes and 10 minutes. Forty microliters from each vial were pipetted into 1.5-ml microcentrifuge tube containing 1 ml of methanol. AZT was extracted from the oil phase into the methanol phase by shaking on a horizontal shaker overnight. Following overnight extraction, the oil phase was separated from the methanol phase by centrifugation at 14000 RPM for 10 minutes. The methanol phase was diluted before analysis using liquid chromatography-mass spectrometry (LC-MS).
AZT concentration in methanol extract was analysed by LC-MS on Agilent 1260 Infinity I Quaternary LC equipped with a diode array detector (DAD) and Agilent 6120B Single Quadrupole mass spectrometer hardware and software. Roxithromycin (RXT) was used as an internal standard of AZT analysis. The linear range of AZT detection was 10-5000 ng/ml. […] The flow rate was 0.75 ml/min while chromatograms were recorded at wavelength of 210 nm, bandwidth of 4.0 nm and 5 Hz data acquisition rate. […]

[4] = Stability of drugs in oleogels; assay type: physicochemical; conditions: oleogel, 40° C., mean±S.D., n=5
Description: Finally, the stability of drugs in oleogels was tested (Table 3.3). Oleogels loaded with drugs (Azithromycin, Lumefantrine, or Ivermectin) were placed at different temperatures. At various times, drug was extracted from the oleogel and the concentration was measured using HPLC-UV or LC-MS/MS. Drug stability (last column) is represented as mean±S.D., n=5.

[5] = model input, Beringer et al., 2005; cited from earlier work
[6] = Stability of ivermectin during heating; assay type: physicochemical; conditions: peceol, ricebran wax, cottonseed oil
Description: As manufacturing of the formulation involves heating, the stability of ivermectin during heating was assessed (see FIG. 24).

[7] = Lindenberg et al., 2004; cited from earlier work
[8] = Solubility of albendazole in oil and oil-solubilizer formulations; conditions: 28 formulations
[9] = Release of ABZ from non-oil-based formulations in SIF; assay type: in vitro ADME
Description: To test the effect of nanosizing, the rate of release of ABZ in SIF when ABZ was used unformulated and when formulated in nanoparticles was compared. Additionally, a physical mixture of ABZ, PVA and Tween 20 was prepared to delineate the effects that the excipients had on drug release and the effect of nanosizing.
For the release study, 17.5 mg of the nanoparticle formulation, or physical mixture were placed in a 50-ml falcon tube. ABZ powder equivalent to the amount present in the physical mixture and nanoparticle formulation was used for the drug release. SIF was added to each formulation and drug release studies were conducted as described for AZT. Concentration of ABZ in release media was measured using HPLC.
ABZ samples after being prepared with methanol were analysed by Agilent 1260 Infinity I Quaternary LC equipped with a diode array detector (DAD). Isocratic elution of 0.1% formic acid in distilled water and acetonitrile was 55:45 with flow rate of 1 ml/min. Injection volume was 5 μl, and Zobrax Eclipse XDB C18 column (4.6×150 mm) was used at 40° C. The running time was 6 minutes and the retention time of ABZ is 3.4 mins. DAD was employed, and readout was detected at the wavelength of 254 nm, bandwidth of 4.0 nm and 10 Hz data acquisition rate. The method gained good peak shape and symmetry.

[10] = cited from earlier work; remark: listed apart in the source
[11] = In vitro digestion and drug bioaccessibility of praziquantel-loaded gel; assay type: in vitro ADME; conditions: from oleogel
Description: The digestion of gels were characterized in three simulated conditions—oral, gastric and intestinal phases (fasted state).
Simulated salivary fluid (SSF) pH 7.0 was prepared in the presence of a-amylase based on a previously described method^24,43 with slight modifications. Briefly, SSF stock solution (1.25x concentrated, 3.5 mL) was placed in a glass vial. The 1.25× SSF stock solution contained the following ingredients: 15.1 mmol/L potassium chloride, 3.7 mmol/L potassium dihydrogen phosphate, 13.6 mmol/L sodium bicarbonate, 0.15 mmol/L magnesium chloride and 0.06 mmol/L ammonium carbonate. To this 0.5 mL of a-amylase solution (0.3 mg/mL in SSF stock solution), 0.025 mL of 0.3M calcium chloride and 0.975 mL of water were added and thoroughly mixed.
The SSF was added to 0.5 g praziquantel-loaded gel placed in a pre-heated glass vial at 37° C. containing 5 glass beads to aid in mixing. The vials were placed in an incubator shaker and shaken at 160 rpm and 37° C. One hundred microliters of the sample were withdrawn periodically, centrifuged at 14,000 rpm for 15 min. The supernant was collected and syringe filtered through a 0.22 μm nylon syringe filter (Nalgene Syringe Filters, Thermo Scientific™). Drug concentration in the filtrate was analyzed using HPLC.
In vitro digestion in gastric phase was performed in 7.5 mL simulated gastric fluid (SGF) pH 2 (2 g/L sodium chloride, 2.917 g/L concentrated hydrochloric acid) in the presence of pepsin (3.4 g/L). […] Samples (0.2 mL) were withdrawn periodically, centrifuged at 14,000 rpm for 15 min and syringe filtered through 0.22 μm nylon syringe filters (Nalgene Syringe Filters, Thermo Scientific™) prior to drug quantification with HPLC.
The fasting state simulated intestinal fluid version 2 (FaSSIF-V2) medium pH 6.5 was prepared based on a previously described method^44 in the presence of pancreatin (8×USP specification). […] Samples were then centrifuged for 15 min at 14,000 rpm at room temperature and drug concentration in the supernatant was measured using HPLC.

solubility of azithromycin in the oils [1]: 6 to 10 mg/g | water solubility lower than certain tested formulations [1]: ~100 fold | % drug stable ([4]; 44 days, Propyl gallate): 99 ± 5%
Compound: CC[C@H]1OC(=O)[C@H](C)[C@@H](O[C@H]2C[C@@](C)(OC)[C@@H](O)[C@H](C)O2)[C@H](C)[C@@H](O[C@@H]2O[C@H](C)C[C@H](N(C)C)[C@H]2O)[C@](C)(O)C[C@@H](C)CN(C)[C@H](C)[C@@H](O)[C@]1(C)O [AZT, azithromycin]
solubility of azithromycin in water ([2]; reference 39): ~0.2 mg/g | AZT concentrations after heating at 90° C. [3]: no statistical effect of temperature on AZT concentrations | ka (absorption rate constant) [5]: 0.452 h⁻¹

average solubility in other Labrafac lipophile formulations lower than with flaxseed oil [1]: ~1.6 fold | average solubility of lumefantrine [1]: 16.6 ± 3.8 mg/g | solubility in tested formulations higher than reported water solubility [1]: ~10000 fold | solubility of lumefantrine [1]: 26.6 ± 1.8 mg/g | solubility of lumefantrine in the oils [1]: > 10 mg/g
Compound: CCCCN(CCCC)CC(O)c1cc(Cl)cc2c1-c1ccc(Cl)cc1/C2=C/c1ccc(Cl)cc1 (stereo not drawn) [lumefantrine]
reported water solubility of lumefantrine ([2]; reference 40): < 2 µg/g

solubility in sunflower oil higher than in the rest of the oils [1]: ~2 fold | solubility of praziquantel in most oils [1]: 5 to 7 mg/g | solubilized fraction of praziquantel in the aqueous intestinal phase ([11]; FaSSIF-V2 with pancreatin, t=15 min): 51% | praziquantel in the aqueous phase, maximum of total drug content ([11]; simulated gastric digestion (SGF pH 2), within 30 min, plateau to 2 h): 10% | praziquantel detected in the SSF, of total drug content ([11]; simulated salivary fluid): ≤ 1%
Compound: O=C(C1CCCCC1)N1CC(=O)N2CCc3ccccc3C2C1 (stereo not drawn) [praziquantel]

More lines, now with the values behind:

Compound: ivermectin
% drug stable ([4]; 28 days, Butylated hydroxyanisole): 98 ± 11% | drug recovered after heating [6]: 100%

Compound: CCCSc1ccc2nc(NC(=O)OC)[nH]c2c1 [ABZ, albendazole]
absorption extent [7]: < 5% | solubility in oil and oil-solubilizer formulations higher than reported water solubility [8]: ~10 fold | ABZ released and solubilized, plateau concentration ([9]; 90-minute release, not formulated in oil): 0.05 µg/mL | drug release (in words) ([9]; not formulated in oils, FIGS. 36A-36C): no drug release measured | reported water solubility of albendazole [10]: 41 µg/g
